Laboratory results: patent US5580552A, “7-glycosyloxybenzopyran derivative and antiallergic agent containing the derivative as active ingredient” (priority 1994, dated 1996)

What was measured:
[1] = test system: experimental asthma model (airway resistance); assay: Effect on experimental asthma model in guinea pigs (airway resistance); type: in vivo, guinea pigs (male hartley); details: Cavia porcellus, po, 0.5 h, 50 mg/kg oral (TABLE 6)
Protocol: Effect on experimental asthma model in guinea pigs
The asthma is typical allergic disease and we carried out this pharmacological test by well known experimental asthma model in guinea pigs in order to comfirm that the compounds of the present invention suppress the asthma. In the following, the method of the pharmacological test will be explained.
Method: Male hartley guinea pigs were immunized by intraperitoneal injection of saline (1ml) containing 5 mg of ovalbumine (OVA) three times at interval of one week. 2 weeks after final immunization, the animals were challenged by inhalation of 1% OVA-saline solution for 1 minute and then the airway resistance of the animals were measured for 30 minutes with PULMOS-1 (Medical Interface Project Station Inc.) after the inhalation. The compounds of the present invention (test compounds) suspended in 0.5% CMCNa were given orally at a dose of 50 mg/kg. As positive control group, Disodium Cromoglicate (DSCG), well known anti-allergic agent, in saline were injected at a dose of 20 mg/kg into the vein of the animals. As vehicle control group, only 0.5% CMCNa solution were given orally. The inhibition (%) of the airway resistance in vehicle control group was calculated according to equation 5 and the result was shown in TABLE 6. Each experimental group consisted of 5 guinea pigs. [formula]
A: Maximum airway resistance in vehicle control group
B: Maximum airway resistance in test compounds group or positive control group

[2] = test system: homologous passive cutaneous anaphylaxis (PCA) reaction; assay: Effect on homologous passive cutaneous anaphylaxis (PCA) reaction in rats; type: in vivo, rats (male wistar); details: Rattus norvegicus, po, 0.5 h, 50 mg/kg oral, 1 hour before challenge (TABLE 2)
Protocol: Effect on homologous passive cutaneous anaphylaxis (PCA) reaction in rats.
This experimental animal model is caused by immediate type allergic reaction namely, antigen-antibody reaction. In the following, the method of this pharmacological test will be explained.
Method: Male wistar rats (9 weeks old) were intradermally administered 0.05 ml of anti-serum against dinitrophenylated ascaris (DNP-As) into two sites on the shaved dorsal skin. 48 hours later, 7-glycosyloxybenzopyran derivatives (test compounds) suspended in 0.5% sodium carboxymethylcellulose (CMCNa) were given orally at a dose of 50 mg/kg to the animals. One hour after administration of Test compounds, the animals were induced anaphylaxis by injection of saline (1 ml) dissolving 5 mg of Evans Blue and 1 mg of Trinitrophenylated ascaris (TNP-As) into the tail vein of the animals. 30 minutes after induction of anaphylaxis, animals were anesthetized by ether and killed by bleeding, and were flayed dorsal skin. The determination of extravasated dye was performed according to the method of Katayama et al. (Microbiol. Immunol., Vol.22, P 89-101, 1978). As vehicle control group, only 0.5% CMCNa solution was administered orally, and as positive control group, Tranilast suspended in 0.5% CMCNa was administered orally at a dose of 100 mg/kg to the animals with the same method as the test compounds groups. Each experimental group consisted of 5 rats. [formula]

[3] = test system: contact dermatitis induced by picryl chloride; assay: Effect on contact dermatitis induced by picryl chloride in mice; type: in vivo; details: Mus musculus, po, 24 h, 50 mg/kg oral, 1 hour before and 16 hours after challenge; 24 hours after challenge; read-out: Inhibition (%) against the increase of ear thickness
Protocol: Effect on contact dermatitis induced by picryl chloride in mice
The delayed type hypersensitization is inhibited by steroid drugs,but can not be effected by known anti-allergic agents. In the following, the method of the pharmacological test will be explained.
Method: Mice, shaved their abdominal skin on previous day, were immunized by applying 0.1 ml of acetone containing 7 mg of picryl chloride to the skin of the abdomen. 7 days after immunization, the thickness of the ear was measured with a dial thickness gauge, then mice were challenged by painting 5 μl of 1% picryl chloride olive oil solution to each side skin of left ear. 24 hours after challenge, the thickness of the left ear was measured again and the increase (%) of thickness was calculated according to equation 2. The compounds of the present invention (test compounds) suspended in 0.5% CMCNa were forcibly administered orally at a dose of 50 mg/kg at 1 hour before and 16 hours after challenge. As vehicle control group, only 0.5% CMCNa solution were administered orally, and as positive control group, Prednisolone, steroid hormone, and Tranilast were administered orally at the doses of 10 mg/kg and 100 mg/kg, respectively.
Increase (%)=(A-B)/B×100 (Equation 2)
A: thickness of the ear at 24 hours after challenge
B: thickness of the ear before challenge
Inhibition (%)=(C-D)/C×100 (equation 3)
C: The increase (%) in vehicle control group
D: The increase (%) in test compounds group or positive control group

How did the inhibition in vivo at 50 mg/kg [1] turn out when C=COc1c(O)c2ccc(O[C@@H]3O[C@H](CO)[C@@H](O)[C@H](O)[C@H]3O)cc2oc1=O [compound 44] was run?
The inhibition in vivo at 50 mg/kg was 65.1%.

And the inhibition in vivo at 50 mg/kg [2]?
The inhibition in vivo at 50 mg/kg was 54.5%.

What about the inhibition in vivo at 50 mg/kg [3] of the same molecule?
The inhibition in vivo at 50 mg/kg was 56.3%.

What does the source list for CCC=CCCOc1c(O)c2ccc(O[C@@H]3O[C@H](CO)[C@@H](O)[C@H](O)[C@H]3O)cc2oc1=O [compound 45]?
inhibition in vivo at 50 mg/kg [1]: 62.3%; inhibition in vivo at 50 mg/kg [2]: 55.2%; inhibition in vivo at 50 mg/kg [3]: 54.2%

How did the inhibition in vivo at 50 mg/kg [1] turn out when CC(C)=CCC/C(C)=C/COc1c(O)c2ccc(O[C@@H]3O[C@H](CO)[C@@H](O)[C@H](O)[C@H]3O)cc2oc1=O [compound 46] was run?
The inhibition in vivo at 50 mg/kg was 63.4%.

What about the inhibition in vivo at 50 mg/kg [2] of the same molecule?
Its inhibition in vivo at 50 mg/kg is 54.3%.

And the inhibition in vivo at 50 mg/kg [3]?
The inhibition in vivo at 50 mg/kg was 57.6%.

What does the source list for O=c1oc2cc(O[C@@H]3O[C@H](CO)[C@@H](O)[C@H](O)[C@H]3O)ccc2c(O)c1OCc1ccccc1 [compound 47]?
inhibition in vivo at 50 mg/kg [1]: 59.1%; inhibition in vivo at 50 mg/kg [2]: 52.1%; inhibition in vivo at 50 mg/kg [3]: 51.9%

Which inhibition in vivo at 50 mg/kg [1] does the source give for O=c1oc2cc(O[C@H]3O[C@H](CO)[C@@H](O)[C@H](O)[C@@H]3O)ccc2c(O)c1O [compound 61] here?
Its inhibition in vivo at 50 mg/kg is 45.2%.

And the inhibition in vivo at 50 mg/kg [2]?
Its inhibition in vivo at 50 mg/kg is 40.2%.

What about the inhibition in vivo at 50 mg/kg [3] of the same molecule?
The inhibition in vivo at 50 mg/kg was 43.1%.

For CCCCOc1c(O)c2ccc(O[C@H]3O[C@H](CO)[C@@H](O)[C@H](O)[C@@H]3O)cc2oc1=O [compound 62], which inhibition in vivo at 50 mg/kg [1] is on record?
The inhibition in vivo at 50 mg/kg was 50.1%.

What about the inhibition in vivo at 50 mg/kg [2] of the same molecule?
Its inhibition in vivo at 50 mg/kg is 53.2%.

And the inhibition in vivo at 50 mg/kg [3]?
Its inhibition in vivo at 50 mg/kg is 49.3%.

What does the source list for CCCCCCOc1c(O)c2ccc(O[C@H]3O[C@H](CO)[C@@H](O)[C@H](O)[C@@H]3O)cc2oc1=O [compound 63]?
inhibition in vivo at 50 mg/kg [1]: 53.2%; inhibition in vivo at 50 mg/kg [2]: 55.7%; inhibition in vivo at 50 mg/kg [3]: 53.1%

With CCCCCCCCOc1c(O)c2ccc(O[C@H]3O[C@H](CO)[C@@H](O)[C@H](O)[C@@H]3O)cc2oc1=O [compound 64] as the molecule, how does the inhibition in vivo at 50 mg/kg [1] read?
Its inhibition in vivo at 50 mg/kg is 57.2%.

What about the inhibition in vivo at 50 mg/kg [2] of the same molecule?
Its inhibition in vivo at 50 mg/kg is 54.9%.

What about the inhibition in vivo at 50 mg/kg [3] of the same molecule?
Its inhibition in vivo at 50 mg/kg is 52.6%.

Which results are given for CCCCCCCCCCOc1c(O)c2ccc(O[C@H]3O[C@H](CO)[C@@H](O)[C@H](O)[C@@H]3O)cc2oc1=O [compound 65]?
inhibition in vivo at 50 mg/kg [1]: 49.3%; inhibition in vivo at 50 mg/kg [2]: 52.1%; inhibition in vivo at 50 mg/kg [3]: 50.3%

With CCCCCCCCCCCCOc1c(O)c2ccc(O[C@H]3O[C@H](CO)[C@@H](O)[C@H](O)[C@@H]3O)cc2oc1=O [compound 66] as the molecule, how does the inhibition in vivo at 50 mg/kg [1] read?
Its inhibition in vivo at 50 mg/kg is 54.3%.

What about the inhibition in vivo at 50 mg/kg [2] of the same molecule?
The inhibition in vivo at 50 mg/kg was 49.3%.

And the inhibition in vivo at 50 mg/kg [3]?
Its inhibition in vivo at 50 mg/kg is 51.4%.

For CC(C)Oc1c(O)c2ccc(O[C@H]3O[C@H](CO)[C@@H](O)[C@H](O)[C@@H]3O)cc2oc1=O [compound 67], which inhibition in vivo at 50 mg/kg [1] is on record?
Its inhibition in vivo at 50 mg/kg is 60.2%.

What about the inhibition in vivo at 50 mg/kg [2] of the same molecule?
The inhibition in vivo at 50 mg/kg was 50.4%.

What about the inhibition in vivo at 50 mg/kg [3] of the same molecule?
Its inhibition in vivo at 50 mg/kg is 53.2%.

CC1CCC(Oc2c(O)c3ccc(O[C@H]4O[C@H](CO)[C@@H](O)[C@H](O)[C@@H]4O)cc3oc2=O)CC1 (stereo partly drawn) [compound 68] was tested. Which inhibition in vivo at 50 mg/kg [1] did it give?
The inhibition in vivo at 50 mg/kg was 63.5%.

And the inhibition in vivo at 50 mg/kg [2]?
The inhibition in vivo at 50 mg/kg was 49.5%.

And the inhibition in vivo at 50 mg/kg [3]?
The inhibition in vivo at 50 mg/kg was 47.3%.

Which results are given for C=COc1c(O)c2ccc(O[C@H]3O[C@H](CO)[C@@H](O)[C@H](O)[C@@H]3O)cc2oc1=O [compound 69]?
inhibition in vivo at 50 mg/kg [1]: 59.3%; inhibition in vivo at 50 mg/kg [2]: 48.1%; inhibition in vivo at 50 mg/kg [3]: 49.9%

How did the inhibition in vivo at 50 mg/kg [1] turn out when CCC=CCCOc1c(O)c2ccc(O[C@H]3O[C@H](CO)[C@@H](O)[C@H](O)[C@@H]3O)cc2oc1=O [compound 70] was run?
The inhibition in vivo at 50 mg/kg was 65.6%.

And the inhibition in vivo at 50 mg/kg [2]?
Its inhibition in vivo at 50 mg/kg is 51.3%.

And the inhibition in vivo at 50 mg/kg [3]?
The inhibition in vivo at 50 mg/kg was 52.1%.

For CC(C)=CCC/C(C)=C/COc1c(O)c2ccc(O[C@H]3O[C@H](CO)[C@@H](O)[C@H](O)[C@@H]3O)cc2oc1=O [compound 71], which inhibition in vivo at 50 mg/kg [1] is on record?
The inhibition in vivo at 50 mg/kg was 63.2%.

And the inhibition in vivo at 50 mg/kg [2]?
The inhibition in vivo at 50 mg/kg was 49.8%.

And the inhibition in vivo at 50 mg/kg [3]?
The inhibition in vivo at 50 mg/kg was 47.4%.
